{
  "source": "patent US10597388B2",
  "about": "“Pyridazinone herbicides” (FMC CORPORATION, priority 2014, dated 2020)",
  "assay_in_all_cases": "Test C greenhouse herbicide test, pre- and postemergence",
  "format_in_all_cases": "in vivo",
  "key": {"[1]": {"tested_on": "pigweed (Amaranthus retroflexus)", "procedure,_shortened": "(§1)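 Two application timings: at sowing into a soil/sand blend, and on 2–18 cm seedlings in peat-vermiculite potting mix. A non-phytotoxic, surfactant-containing solvent carried the compounds. Plants were compared with controls and rated visually on 0–100 after 13–15 d.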"}, "[2]": {"tested_on": "barnyardgrass (Echinochloa crus-galli)", "procedure,_shortened": "as §1"}, "[3]": {"tested_on": "johnsongrass (Sorghum halepense)", "procedure,_shortened": "as §1"}, "[4]": {"tested_on": "lambsquarters (Chenopodium album)", "procedure,_shortened": "as §1"}, "[5]": {"tested_on": "morningglory (Ipomoea coccinea)", "procedure,_shortened": "as §1"}, "[6]": {"tested_on": "wheat (winter wheat, Triticum aestivum)", "procedure,_shortened": "as §1"}, "[7]": {"tested_on": "blackgrass (Alopecurus myosuroides)", "procedure,_shortened": "as §1"}, "[8]": {"tested_on": "ragweed (common ragweed, Ambrosia elatior)", "procedure,_shortened": "as §1"}, "corn (Zea mays)": {"tested_on": "corn (Zea mays)", "procedure,_shortened": "as §1"}, "soybean (Glycine max)": {"tested_on": "soybean (Glycine max)", "procedure,_shortened": "as §1"}, "[9]": {"tested_on": "velvetleaf (Abutilon theophrasti)", "procedure,_shortened": "as §1"}, "[10]": {"tested_on": "ryegrass, Italian (Italian ryegrass, Lolium multiflorum)", "procedure,_shortened": "as §1"}, "[11]": {"tested_on": "crabgrass, large (large crabgrass, Digitaria sanguinalis)", "procedure,_shortened": "as §1"}, "[12]": {"tested_on": "nutsedge, yellow (yellow nutsedge, Cyperus esculentus)", "procedure,_shortened": "as §1"}, "[13]": {"tested_on": "waterhemp (common waterhemp, Amaranthus rudis)", "procedure,_shortened": "as §1"}, "[14]": {"details": "Postemergence, 31 g ai/ha, 0 to 100 scale (0 no effect, 100 complete control)"}, "[15]": {"details": "Postemergence, 125 g ai/ha, scale 0 to 100, 0 is no effect, 100 is complete control"}, "[16]": {"details": "Postemergence, 250 g ai/ha, scale 0 to 100, 0 no effect, 100 complete control, 13 to 15 d"}, "[17]": {"details": "postemergence, 62 g ai/ha, scale 0 to 100, 0 no effect, 100 complete control"}},
  "data": [
    {"compound": "CCC(=O)Oc1c(C)nn(C)c(=O)c1-c1c(C)ccc2ccccc12", "note": "[Compound 78]", "values": [
      {"measurement": "Pigweed plant response rating", "setting": "[1]; [14]", "value": 50},
      {"measurement": "Plant response rating, Pigweed", "setting": "[1]; [15]", "value": 75},
      {"measurement": "Plant response rating, Pigweed", "setting": "[1]; [16]", "value": 80},
      {"measurement": "Pigweed plant response rating", "setting": "[1]; [17]", "value": 60},
      {"measurement": "Barnyardgrass plant response rating", "setting": "[2]; [14]", "value": 15},
      {"measurement": "Plant response rating, Barnyardgrass", "setting": "[2]; [15]", "value": 30},
      {"measurement": "Plant response rating, Barnyardgrass", "setting": "[2]; [16]", "value": 25},
      {"measurement": "Barnyardgrass plant response rating", "setting": "[2]; [17]", "value": 25},
      {"measurement": "Johnsongrass plant response rating", "setting": "[3]; [14]", "value": 5},
      {"measurement": "Plant response rating, Johnsongrass", "setting": "[3]; [15]", "value": 5},
      {"measurement": "Plant response rating, Johnsongrass", "setting": "[3]; [16]", "value": 5},
      {"measurement": "Johnsongrass plant response rating", "setting": "[3]; [17]", "value": 5},
      {"measurement": "Lambsquarters plant response rating", "setting": "[4]; [14]", "value": 40},
      {"measurement": "Plant response rating, Lambsquarters", "setting": "[4]; [15]", "value": 75},
      {"measurement": "Plant response rating, Lambsquarters", "setting": "[4]; [16]", "value": 100},
      {"measurement": "Lambsquarters plant response rating", "setting": "[4]; [17]", "value": 70},
      {"measurement": "Morningglory plant response rating", "setting": "[5]; [14]", "value": 20},
      {"measurement": "Plant response rating, Morningglory", "setting": "[5]; [15]", "value": 65},
      {"measurement": "Plant response rating, Morningglory", "setting": "[5]; [16]", "value": 65},
      {"measurement": "Morningglory plant response rating", "setting": "[5]; [17]", "value": 40},
      {"measurement": "Wheat plant response rating", "setting": "[6]; [14]", "value": 0},
      {"measurement": "Plant response rating, Wheat", "setting": "[6]; [15]", "value": 5},
      {"measurement": "Plant response rating, Wheat", "setting": "[6]; [16]", "value": 10},
      {"measurement": "Wheat plant response rating", "setting": "[6]; [17]", "value": 5},
      {"measurement": "Blackgrass plant response rating", "setting": "[7]; [14]", "value": 0},
      {"measurement": "Plant response rating, Blackgrass", "setting": "[7]; [15]", "value": 5},
      {"measurement": "Plant response rating, Blackgrass", "setting": "[7]; [16]", "value": 30},
      {"measurement": "Blackgrass plant response rating", "setting": "[7]; [17]", "value": 5},
      {"measurement": "Ragweed plant response rating", "setting": "[8]; [14]", "value": 10},
      {"measurement": "Plant response rating, Ragweed", "setting": "[8]; [15]", "value": 60},
      {"measurement": "Plant response rating, Ragweed", "setting": "[8]; [16]", "value": 75},
      {"measurement": "Ragweed plant response rating", "setting": "[8]; [17]", "value": 20},
      {"measurement": "Corn plant response rating", "setting": "corn (Zea mays); [14]", "value": 0},
      {"measurement": "Plant response rating, Corn", "setting": "corn (Zea mays); [15]", "value": 10},
      {"measurement": "Plant response rating, Corn", "setting": "corn (Zea mays); [16]", "value": 0},
      {"measurement": "Corn plant response rating", "setting": "corn (Zea mays); [17]", "value": 0},
      {"measurement": "Soybean plant response rating", "setting": "soybean (Glycine max); [14]", "value": 0},
      {"measurement": "Plant response rating, Soybean", "setting": "soybean (Glycine max); [15]", "value": 5},
      {"measurement": "Plant response rating, Soybean", "setting": "soybean (Glycine max); [16]", "value": 20},
      {"measurement": "Soybean plant response rating", "setting": "soybean (Glycine max); [17]", "value": 0},
      {"measurement": "Velvetleaf plant response rating", "setting": "[9]; [14]", "value": 0},
      {"measurement": "Plant response rating, Velvetleaf", "setting": "[9]; [15]", "value": 35},
      {"measurement": "Plant response rating, Velvetleaf", "setting": "[9]; [16]", "value": 60},
      {"measurement": "Velvetleaf plant response rating", "setting": "[9]; [17]", "value": 10},
      {"measurement": "Ryegrass, Italian plant response rating", "setting": "[10]; [14]", "value": 55},
      {"measurement": "Plant response rating, Ryegrass, Italian", "setting": "[10]; [15]", "value": 85},
      {"measurement": "Plant response rating, Ryegrass, Italian", "setting": "[10]; [16]", "value": 90},
      {"measurement": "Ryegrass, Italian plant response rating", "setting": "[10]; [17]", "value": 65},
      {"measurement": "Crabgrass, Large plant response rating", "setting": "[11]; [14]", "value": 5},
      {"measurement": "Plant response rating, Crabgrass, Large", "setting": "[11]; [15]", "value": 10},
      {"measurement": "Plant response rating, Crabgrass, Large", "setting": "[11]; [16]", "value": 10},
      {"measurement": "Crabgrass, Large plant response rating", "setting": "[11]; [17]", "value": 5},
      {"measurement": "Nutsedge, Yellow plant response rating", "setting": "[12]; [14]", "value": 0},
      {"measurement": "Plant response rating, Nutsedge, Yellow", "setting": "[12]; [15]", "value": 35},
      {"measurement": "Plant response rating, Nutsedge, Yellow", "setting": "[12]; [16]", "value": 60},
      {"measurement": "Nutsedge, Yellow plant response rating", "setting": "[12]; [17]", "value": 25},
      {"measurement": "Waterhemp plant response rating", "setting": "[13]; [14]", "value": 75},
      {"measurement": "Plant response rating, Waterhemp", "setting": "[13]; [15]", "value": 80},
      {"measurement": "Plant response rating, Waterhemp", "setting": "[13]; [16]", "value": 90},
      {"measurement": "Waterhemp plant response rating", "setting": "[13]; [17]", "value": 90}
    ]}
  ]
}
